Measured values reported in patent US20220041616A1, “SPIRO COMPOUND AND MEDICAL USES THEREOF” (The National Institutes of Pharmaceutical R&D Co., Ltd., priority 2018, published 2022).

These molecules were tested against T1, ACC1 (Homo sapiens, UniProt Q13085) (assay: In vitro inhibition of ACC1 activity, ADP-Glo Kinase Analysis). Details: 1 nM ACC1, 10 μM acetyl-CoA, 20 μM ATP.
T1 construct: purchased BPS bioscience
Assay type: biochemical
Summary of the method: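 Enzyme was preincubated with compound for 15 min, then reacted for 30 min at room temperature in 5% DMSO, with ADP measured by ADP-Glo luminescence. ACC1: 1 nM, with 10 μM acetyl-CoA, 30 mM NaHCO3 and 20 μM ATP. ACC2: 1.1 nM, with 20 μM acetyl-CoA, 20 mM NaHCO3 and 15 μM ATP.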
For `COc1ccccc1C(CN1C(=O)C2(CCC(C(=O)O)C2)C(=O)c2c1sc(-c1ncco1)c2C)OC1CCOCC1` (mixture of isomers) [Compound 5x, 7′-(2-(2-methoxyphenyl)-2-((tetrahydro-2H-pyran-4-yl)oxy)ethyl)-3′-methyl-2′-(oxazol-2-yl)-4′,6′-dioxo-6′,7′-dihydro-4′H-spiro[cyclopentane-1,5′-thieno[2,3-b]pyridine]-3-carboxylic Acid], the IC50 was < 10 nM. For `COc1ccccc1C(CN1C(=O)C2(CCC(C(=O)O)C2)C(=O)c2c1sc(-c1ncco1)c2C)OC1CCOCC1` (mixture of isomers) [Compound 5y, 7′-(2-(2-methoxyphenyl)-2-((tetrahydro-2H-pyran-4-yl)oxy)ethyl)-3′-methyl-2′-(oxazol-2-yl)-4′,6′-dioxo-6′,7′-dihydro-4′H-spiro[cyclopentane-1,5′-thieno[2,3-b]pyridine]-3-carboxylic Acid], the IC50 was < 10 nM. `COc1ccccc1C(CN1C(=O)C2(CC(C(=O)O)C2)C(=O)c2c1sc(-c1ncco1)c2C)OC1CCOCC1` (mixture of isomers) [Compound 8, 7′-(2-(2-methoxyphenyl)-2-((tetrahydro-2H-pyran-4-yl)oxy)ethyl)-3′-methyl-2′-(oxazol-2-yl)-4′,6′-dioxo-6′,7′-dihydro-4′H-spiro[cyclobutane-1,5′-thieno[2,3-b]pyridine]-3-carboxylic Acid] was tested, and the IC50 was < 10 nM. With `COc1ccccc1C(CN1C(=O)C2(CCC(C(=O)O)C2)C(=O)c2c1sc(-c1ncco1)c2C)OC1CCOCC1` (single isomer, unassigned) [Compound 5b, 7′-(2-(2-methoxyphenyl)-2-((tetrahydro-2H-pyran-4-yl)oxy)ethyl)-3′-methyl-2′-(oxazol-2-yl)-4′,6′-dioxo-6′,7′-dihydro-4′H-spiro[cyclopentane-1,5′-thieno[2,3-b]pyridine]-3-carboxylic Acid] the IC50 was < 10 nM. With `COc1ccccc1C(CN1C(=O)C2(CC(C(=O)O)C2)C(=O)c2c1sc(-c1ncco1)c2C)OC1CCOCC1` (single isomer, unassigned) [Compound 8d, 7′-(2-(2-methoxyphenyl)-2-((tetrahydro-2H-pyran-4-yl)oxy)ethyl)-3′-methyl-2′-(oxazol-2-yl)-4′,6′-dioxo-6′,7′-dihydro-4′H-spiro[cyclobutane-1,5′-thieno[2,3-b]pyridine]-3-carboxylic Acid] the IC50 was < 10 nM. `COc1ccccc1[C@H](CN1c2sc(-c3ncco3)c(C)c2C(=O)[C@]2(C[C@H](C(=O)O)C2)C1=O)OC1CCOCC1` [Compound 8c, 7′-(2-(2-methoxyphenyl)-2-((tetrahydro-2H-pyran-4-yl)oxy)ethyl)-3′-methyl-2′-(oxazol-2-yl)-4′,6′-dioxo-6′,7′-dihydro-4′H-spiro[cyclobutane-1,5′-thieno[2,3-b]pyridine]-3-carboxylic Acid] was tested, and the IC50 was < 10 nM.
